According to ChEMBL document CHEMBL1201861, “Genomics of Drug Sensitity in Cancer screening data, Wellcome Trust Sanger Institute”:

These compounds were tested on Lu-65 (assay: cells). Conditions: Homo sapiens, Lu-65.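 Also: growth inhibition of Lu-65 cancer cells, read out by a cell viability assay.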
Assay type: functional, cell-based, Homo sapiens
Description: SANGER: Inhibition of human LU-65 cell growth in a cell viability assay.

Row | SMILES | IC50 [nM]
1 | CC1(C)CNc2cc(NC(=O)c3cccnc3NCc3ccncc3)ccc21 [MOTESANIB] | > 2000

The compounds below were run on BXPC-3 (assay: cells). Conditions: Homo sapiens, BXPC-3.
Assay type: functional, cell-based, Homo sapiens
Description: SANGER: Inhibition of human BxPC-3 cell growth in a cell viability assay.

Row | SMILES | IC50 [nM]
2 | CC1(C)CNc2cc(NC(=O)c3cccnc3NCc3ccncc3)ccc21 [MOTESANIB] | > 2000

These compounds were tested on SBC-1 (assay: cells). Conditions: Homo sapiens, SBC-1.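 Also: cell viability assay measuring growth inhibition of the SBC-1 cell line, IC50 being the concentration that halves growth.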
Assay type: functional, cell-based, Homo sapiens
Description: SANGER: Inhibition of human SBC-1 cell growth in a cell viability assay.

Row | SMILES | IC50 [nM]
3 | CC1(C)CNc2cc(NC(=O)c3cccnc3NCc3ccncc3)ccc21 [MOTESANIB] | > 2000

What follows are compounds tested on 8505C (assay: cells). Conditions: Homo sapiens, 8505C.
Assay type: functional, cell-based, Homo sapiens
Description: SANGER: Inhibition of human 8505C cell growth in a cell viability assay.

Row | SMILES | IC50 [nM]
4 | CC1(C)CNc2cc(NC(=O)c3cccnc3NCc3ccncc3)ccc21 [MOTESANIB] | > 2000

Each compound was assayed on KY821 (assay: cells). Conditions: Homo sapiens, KY821.
Assay type: functional, cell-based, Homo sapiens
Description: SANGER: Inhibition of human KY821 cell growth in a cell viability assay.

Row | SMILES | IC50 [nM]
5 | CC1(C)CNc2cc(NC(=O)c3cccnc3NCc3ccncc3)ccc21 [MOTESANIB] | > 2000

The compounds below were run on MKN-45 (assay: cells). Conditions: Homo sapiens, MKN-45.
Assay type: functional, cell-based, Homo sapiens
Description: SANGER: Inhibition of human MKN45 cell growth in a cell viability assay.

Row | SMILES | IC50 [nM]
6 | CC1(C)CNc2cc(NC(=O)c3cccnc3NCc3ccncc3)ccc21 [MOTESANIB] | > 2000

What follows are compounds tested on LN-405 (assay: cells). Conditions: Homo sapiens, LN-405.
Assay type: functional, cell-based, Homo sapiens
Description: SANGER: Inhibition of human LN-405 cell growth in a cell viability assay.

Row | SMILES | IC50 [nM]
7 | CC1(C)CNc2cc(NC(=O)c3cccnc3NCc3ccncc3)ccc21 [MOTESANIB] | > 2000

What follows are compounds tested on KU812 cell line (assay: cells). Conditions: Homo sapiens, KU812.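 Also: growth inhibition of KU812 cells, read out with a cell viability assay.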
Assay type: functional, cell-based, Homo sapiens
Description: SANGER: Inhibition of human KU812 cell growth in a cell viability assay.

Row | SMILES | IC50 [nM]
8 | CC1(C)CNc2cc(NC(=O)c3cccnc3NCc3ccncc3)ccc21 [MOTESANIB] | > 2000

These compounds were tested on CAL-33 (assay: cells). Conditions: Homo sapiens, CAL-33.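 Also: growth inhibition of CAL-33 cells, read out with a cell viability assay.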
Assay type: functional, cell-based, Homo sapiens
Description: SANGER: Inhibition of human CAL-33 cell growth in a cell viability assay.

Row | SMILES | IC50 [nM]
9 | CC1(C)CNc2cc(NC(=O)c3cccnc3NCc3ccncc3)ccc21 [MOTESANIB] | > 2000

Each compound was assayed on OCI-AML2 (assay: cells). Conditions: Homo sapiens, OCI-AML2.
Assay type: functional, cell-based, Homo sapiens
Description: SANGER: Inhibition of human OCI-AML2 cell growth in a cell viability assay.

Row | SMILES | IC50 [nM]
10 | CC1(C)CNc2cc(NC(=O)c3cccnc3NCc3ccncc3)ccc21 [MOTESANIB] | > 2000

These compounds were tested on FTC-133 (assay: cells). Conditions: Homo sapiens, FTC-133.
Assay type: functional, cell-based, Homo sapiens

Row | SMILES | IC50 [nM]
11 | CC1(C)CNc2cc(NC(=O)c3cccnc3NCc3ccncc3)ccc21 [MOTESANIB] | > 2000

What follows are compounds tested on ASPC1 (assay: cells). Conditions: Homo sapiens, ASPC1.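 Also: growth inhibition of AsPC-1 cells, read out with a cell viability assay.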
Assay type: functional, cell-based, Homo sapiens
Description: SANGER: Inhibition of human AsPC-1 cell growth in a cell viability assay.

Row | SMILES | IC50 [nM]
12 | CC1(C)CNc2cc(NC(=O)c3cccnc3NCc3ccncc3)ccc21 [MOTESANIB] | > 2000

What follows are compounds tested on HO-1-N-1 (assay: cells). Conditions: Homo sapiens, HO-1-N-1.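 Also: growth inhibition of human HO-1-N-1 cells, read out with a cell viability assay.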
Assay type: functional, cell-based, Homo sapiens
Description: SANGER: Inhibition of human HO-1-N-1 cell growth in a cell viability assay.

Row | SMILES | IC50 [nM]
13 | CC1(C)CNc2cc(NC(=O)c3cccnc3NCc3ccncc3)ccc21 [MOTESANIB] | > 2000

These compounds were tested on PC-14 (assay: cells). Conditions: Homo sapiens, PC-14.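 Also: cell viability assay measuring inhibition of PC-14 cell growth.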
Assay type: functional, cell-based, Homo sapiens
Description: SANGER: Inhibition of human PC-14 cell growth in a cell viability assay.

Row | SMILES | IC50 [nM]
14 | CC1(C)CNc2cc(NC(=O)c3cccnc3NCc3ccncc3)ccc21 [MOTESANIB] | > 2000

Each compound was assayed on GI-ME-N (assay: cells). Conditions: Homo sapiens, GI-ME-N.
Assay type: functional, cell-based, Homo sapiens
Description: SANGER: Inhibition of human GI-ME-N cell growth in a cell viability assay.

Row | SMILES | IC50 [nM]
15 | CC1(C)CNc2cc(NC(=O)c3cccnc3NCc3ccncc3)ccc21 [MOTESANIB] | > 2000

The compounds below were run on NCI-H2087 (assay: cells). Conditions: Homo sapiens, NCI-H2087.
Assay type: functional, cell-based, Homo sapiens
Description: SANGER: Inhibition of human NCI-H2087 cell growth in a cell viability assay.

Row | SMILES | IC50 [nM]
16 | CC1(C)CNc2cc(NC(=O)c3cccnc3NCc3ccncc3)ccc21 [MOTESANIB] | > 2000

What follows are compounds tested on T98G (assay: cells). Conditions: Homo sapiens, T98G.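 Also: growth inhibition of T98G cells, read out by a cell viability assay.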
Assay type: functional, cell-based, Homo sapiens
Description: SANGER: Inhibition of human T98G cell growth in a cell viability assay.

Row | SMILES | IC50 [nM]
17 | CC1(C)CNc2cc(NC(=O)c3cccnc3NCc3ccncc3)ccc21 [MOTESANIB] | > 2000

Each compound was assayed on NCI-H1581 (assay: cells). Conditions: Homo sapiens, NCI-H1581.
Assay type: functional, cell-based, Homo sapiens
Description: SANGER: Inhibition of human NCI-H1581 cell growth in a cell viability assay.

Row | SMILES | IC50 [nM]
18 | CC1(C)CNc2cc(NC(=O)c3cccnc3NCc3ccncc3)ccc21 [MOTESANIB] | > 2000

These compounds were tested on CTB-1 (assay: cells). Conditions: Homo sapiens, CTB-1.
Assay type: functional, cell-based, Homo sapiens
Description: SANGER: Inhibition of human CTB-1 cell growth in a cell viability assay.

Row | SMILES | IC50 [nM]
19 | CC1(C)CNc2cc(NC(=O)c3cccnc3NCc3ccncc3)ccc21 [MOTESANIB] | > 2000

The compounds below were run on NB13 (assay: cells). Conditions: Homo sapiens, NB13.
Assay type: functional, cell-based, Homo sapiens
Description: SANGER: Inhibition of human NB13 cell growth in a cell viability assay.

Row | SMILES | IC50 [nM]
20 | CC1(C)CNc2cc(NC(=O)c3cccnc3NCc3ccncc3)ccc21 [MOTESANIB] | > 2000

These compounds were tested on MZ2-MEL (assay: cells). Conditions: Homo sapiens, MZ2-MEL.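 Also: growth inhibition of MZ2-MEL cells read out with a cell viability assay.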
Assay type: functional, cell-based, Homo sapiens
Description: SANGER: Inhibition of human MZ2-MEL cell growth in a cell viability assay.

Row | SMILES | IC50 [nM]
21 | CC1(C)CNc2cc(NC(=O)c3cccnc3NCc3ccncc3)ccc21 [MOTESANIB] | > 2000

These compounds were tested on D-336MG (assay: cells). Conditions: Homo sapiens, D-336MG.
Assay type: functional, cell-based, Homo sapiens
Description: SANGER: Inhibition of human D-336MG cell growth in a cell viability assay.

Row | SMILES | IC50 [nM]
22 | CC1(C)CNc2cc(NC(=O)c3cccnc3NCc3ccncc3)ccc21 [MOTESANIB] | > 2000

The compounds below were run on NCI-H1437 (assay: cells). Conditions: Homo sapiens, NCI-H1437.
Assay type: functional, cell-based, Homo sapiens
Description: SANGER: Inhibition of human NCI-H1437 cell growth in a cell viability assay.

Row | SMILES | IC50 [nM]
23 | CC1(C)CNc2cc(NC(=O)c3cccnc3NCc3ccncc3)ccc21 [MOTESANIB] | > 2000

What follows are compounds tested on MDA-MB-453 (assay: cells). Conditions: Homo sapiens, MDA-MB-453.
Assay type: functional, cell-based, Homo sapiens
Description: SANGER: Inhibition of human MDA-MB-453 cell growth in a cell viability assay.

Row | SMILES | IC50 [nM]
24 | CC1(C)CNc2cc(NC(=O)c3cccnc3NCc3ccncc3)ccc21 [MOTESANIB] | > 2000

The compounds below were run on UMUC3 (assay: cells). Conditions: Homo sapiens, UMUC3.
Assay type: functional, cell-based, Homo sapiens
Description: SANGER: Inhibition of human UM-UC-3 cell growth in a cell viability assay.

Row | SMILES | IC50 [nM]
25 | CC1(C)CNc2cc(NC(=O)c3cccnc3NCc3ccncc3)ccc21 [MOTESANIB] | > 2000

The compounds below were run on Huh-7 (assay: cells). Conditions: Homo sapiens, Huh-7.
Assay type: functional, cell-based, Homo sapiens
Description: SANGER: Inhibition of human HuH-7 cell growth in a cell viability assay.

Row | SMILES | IC50 [nM]
26 | CC1(C)CNc2cc(NC(=O)c3cccnc3NCc3ccncc3)ccc21 [MOTESANIB] | > 2000

What follows are compounds tested on D-392MG (assay: cells). Conditions: Homo sapiens, D-392MG.
Assay type: functional, cell-based, Homo sapiens

Row | SMILES | IC50 [nM]
27 | CC1(C)CNc2cc(NC(=O)c3cccnc3NCc3ccncc3)ccc21 [MOTESANIB] | > 2000

The compounds below were run on SKG-IIIa (assay: cells). Conditions: Homo sapiens, SKG-IIIa.
Assay type: functional, cell-based, Homo sapiens
Description: SANGER: Inhibition of human SKG-IIIa cell growth in a cell viability assay.

Row | SMILES | IC50 [nM]
28 | CC1(C)CNc2cc(NC(=O)c3cccnc3NCc3ccncc3)ccc21 [MOTESANIB] | > 2000

What follows are compounds tested on KARPAS-299 (assay: cells). Conditions: Homo sapiens, KARPAS-299.
Assay type: functional, cell-based, Homo sapiens
Description: SANGER: Inhibition of human KARPAS-299 cell growth in a cell viability assay.

Row | SMILES | IC50 [nM]
29 | CC1(C)CNc2cc(NC(=O)c3cccnc3NCc3ccncc3)ccc21 [MOTESANIB] | > 2000

What follows are compounds tested on A 172 (assay: cells). Conditions: Homo sapiens, A 172.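 Also: growth inhibition of A172 cells, measured with a cell viability readout.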
Assay type: functional, cell-based, Homo sapiens
Description: SANGER: Inhibition of human A172 cell growth in a cell viability assay.

Row | SMILES | IC50 [nM]
30 | CC1(C)CNc2cc(NC(=O)c3cccnc3NCc3ccncc3)ccc21 [MOTESANIB] | > 2000

These compounds were tested on CAPAN-1 (assay: cells). Conditions: Homo sapiens, CAPAN-1.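 Also: growth suppression of CAPAN-1 cells, read out by a cell viability assay.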
Assay type: functional, cell-based, Homo sapiens
Description: SANGER: Inhibition of human CAPAN-1 cell growth in a cell viability assay.

Row | SMILES | IC50 [nM]
31 | CC1(C)CNc2cc(NC(=O)c3cccnc3NCc3ccncc3)ccc21 [MOTESANIB] | > 2000

Each compound was assayed on NCI-H1304 (assay: cells). Conditions: Homo sapiens, NCI-H1304.
Assay type: functional, cell-based, Homo sapiens
Description: SANGER: Inhibition of human NCI-H1304 cell growth in a cell viability assay.

Row | SMILES | IC50 [nM]
32 | CC1(C)CNc2cc(NC(=O)c3cccnc3NCc3ccncc3)ccc21 [MOTESANIB] | > 2000

The compounds below were run on TE-1 (assay: cells). Conditions: Homo sapiens, TE-1.
Assay type: functional, cell-based, Homo sapiens
Description: SANGER: Inhibition of human TE-1 cell growth in a cell viability assay.

Row | SMILES | IC50 [nM]
33 | CC1(C)CNc2cc(NC(=O)c3cccnc3NCc3ccncc3)ccc21 [MOTESANIB] | > 2000

Each compound was assayed on HCC1395 (assay: cells). Conditions: Homo sapiens, HCC1395.
Assay type: functional, cell-based, Homo sapiens
Description: SANGER: Inhibition of human HCC1395 cell growth in a cell viability assay.

Row | SMILES | IC50 [nM]
34 | CC1(C)CNc2cc(NC(=O)c3cccnc3NCc3ccncc3)ccc21 [MOTESANIB] | > 2000

These compounds were tested on GAK (assay: cells). Conditions: Homo sapiens, GAK.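 Also: cell growth inhibition read out by a cell viability assay.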
Assay type: functional, cell-based, Homo sapiens
Description: SANGER: Inhibition of human GAK cell growth in a cell viability assay.

Row | SMILES | IC50 [nM]
35 | CC1(C)CNc2cc(NC(=O)c3cccnc3NCc3ccncc3)ccc21 [MOTESANIB] | > 2000

The compounds below were run on NCI-H2347 (assay: cells). Conditions: Homo sapiens, NCI-H2347.
Assay type: functional, cell-based, Homo sapiens
Description: SANGER: Inhibition of human NCI-H2347 cell growth in a cell viability assay.

Row | SMILES | IC50 [nM]
36 | CC1(C)CNc2cc(NC(=O)c3cccnc3NCc3ccncc3)ccc21 [MOTESANIB] | > 2000

Each compound was assayed on NCI-H358 (assay: cells). Conditions: Homo sapiens, NCI-H358.
Assay type: functional, cell-based, Homo sapiens
Description: SANGER: Inhibition of human NCI-H358 cell growth in a cell viability assay.

Row | SMILES | IC50 [nM]
37 | CC1(C)CNc2cc(NC(=O)c3cccnc3NCc3ccncc3)ccc21 [MOTESANIB] | > 2000

These compounds were tested on RPMI-2650 (assay: cells). Conditions: Homo sapiens, RPMI-2650.
Assay type: functional, cell-based, Homo sapiens
Description: SANGER: Inhibition of human RPMI-2650 cell growth in a cell viability assay.

Row | SMILES | IC50 [nM]
38 | CC1(C)CNc2cc(NC(=O)c3cccnc3NCc3ccncc3)ccc21 [MOTESANIB] | > 2000

Each compound was assayed on G-401 (assay: cells). Conditions: Homo sapiens, G-401.
Assay type: functional, cell-based, Homo sapiens
Description: SANGER: Inhibition of human G-401 cell growth in a cell viability assay.

Row | SMILES | IC50 [nM]
39 | CC1(C)CNc2cc(NC(=O)c3cccnc3NCc3ccncc3)ccc21 [MOTESANIB] | > 2000

What follows are compounds tested on LOX IMVI (assay: cells). Conditions: Homo sapiens, LOX IMVI.
Assay type: functional, cell-based, Homo sapiens
Description: SANGER: Inhibition of human LOXIMVI cell growth in a cell viability assay.

Row | SMILES | IC50 [nM]
40 | CC1(C)CNc2cc(NC(=O)c3cccnc3NCc3ccncc3)ccc21 [MOTESANIB] | > 2000
